Source: patent publication US20110088107A1, “COMPOSITIONS AND METHODS FOR DERIVING OR CULTURING PLURIPOTENT CELLS” (priority 2009, published 2011)

Key:
naive-hESCs/hiPSCs = assay: Signaling dependence of pluripotent cell lines, naive-hESC/hiPSC; assay type: cell-based, human; conditions: grown in PD/CH/FK/LIF, inhibitor or factor added
Procedure: (§1) Pluripotent cells were equally divided and plated on feeders in the indicated growth medium in which these cell lines are normally maintained, and 36 hours later the wells were supplemented with the indicated inhibitors or growth factors. After seven days, wells were fixed and stained to determine the relative percentage of colonies positive for pluripotency markers. SSEA1 staining was used for mouse stem cells. Colony formation was normalized to an internal control “Growth medium” without inhibitors (first left column). Normalized percentages lower than 5% are defined as “sensitivity” to the presence of the supplemented inhibitor. (B-C) Western blot analysis of total ERK1/2, phosphorylated ERK1/2 (pERK1/2) and phosphorylated Stat3 (pStat3). WIBR3 hESC and C1 hiPSC were grown in traditional bFGF/Activin containing media while naive-hESC/hiPSCs were grown in N2B27 PD/CH/FOR/LIF. ‘2×LIF’ indicates two fold increase in LIF concentration. (D) LIF/Stat3 is required for stabilization of naive-hESC/hiPSCs. Naïve NOD mESCs, WIBR3.5 and WIBR3.1 naive-hESC, and C1 naïve-hiPSCs were electroporated with a pBRY-CAGGS-flox-DsRedT4-IP control plasmid, a plasmid encoding a dominant negative Stat3 Y705F mutant (Stat3-DN), or a plasmid Stat3-C constitutively active mutant (pBRY-Stat3-CA). Cells were passaged three times in the presence of puromycin. After 20 days, colonies positive for pluripotency markers were counted and normalized to colonies from cells electroporated with empty vector (n=3 replicates for each condition). (E) RT-PCR expression of early germ cell markers in the presence or absence of BMP4/7/8 cytokines for 7 days. (F) Representative FISH analysis for XIST RNA (red) and Cot1 nuclear RNA (green). Pri-WIBR3.2 cell line was analyzed after passaging in conventional bFGF/serum-containing human ESC growth conditions. Numbers indicate average percentage of XIST positive nuclei counted.
(§2) Small molecules and cytokines were purchased from Tocris, Calbiochem or Sigma, and were supplemented as indicated at the following final concentration: JAK inhibitor (JAKi, 6 μM), Kenpaullone (KP, 5 μM), PD0325901 (PD, 1 μM); CHIR99021 (CH, […]), Forskolin (FK, 10 μM), FGF4-Receptor inhibitors PD173074 (0.1 μM) and SU5401 (2 μM); TGFβ/ALK inhibitors A83-01 (1 μM), RepSox (1 μM), ALK inhibitor (ALKi—SB431542, 2 μM); AICAR (0.5 mM); BixO1294 (1 μM); BayK8644 (1 μM); recombinant human BMP4 (10 ng/ml), recombinant human IL-6 (10 ng/ml), recombinant human TGFβ (500 ng/ml), Media with inhibitors was routinely replaced every 48 hours to sustain activity of compounds.

hESCs = assay: Signaling dependence of pluripotent cell lines, conventional hESCs; assay type: cell-based, human; conditions: normal growth medium, inhibitor or factor added
Procedure: Pluripotent cells were equally divided and plated on feeders in the indicated growth medium in which these cell lines are normally maintained, and 36 hours later the wells were supplemented with the indicated inhibitors or growth factors. After seven days, wells were fixed and stained to determine the relative percentage of colonies positive for pluripotency markers. SSEA1 staining was used for mouse stem cells. Colony formation was normalized to an internal control “Growth medium” without inhibitors (first left column). […] (B-C) Western blot analysis of total ERK1/2, phosphorylated ERK1/2 (pERK1/2) and phosphorylated Stat3 (pStat3). WIBR3 hESC and C1 hiPSC were grown in traditional bFGF/Activin containing media while naive-hESC/hiPSCs were grown in N2B27 PD/CH/FOR/LIF. ‘2×LIF’ indicates two fold increase in LIF concentration. […] Cells were passaged three times in the presence of puromycin. […] (E) RT-PCR expression of early germ cell markers in the presence or absence of BMP4/7/8 cytokines for 7 days. (F) Representative FISH analysis for XIST RNA (red) and Cot1 nuclear RNA (green). Pri-WIBR3.2 cell line was analyzed after passaging in conventional bFGF/serum-containing human ESC growth conditions.

mEpiSCs = assay: Signaling dependence of pluripotent cell lines, mEpiSCs; assay type: cell-based, mouse; conditions: normal growth medium, inhibitor or factor added
Procedure: as §1, §2

129 EpiSC cells = assay: Dependence of pluripotency on signaling pathways, EpiSC; assay type: cell-based, mouse; conditions: epiESM, Day 6
Procedure: (§3) FIG. 21 illustrates the dependence of pluripotency states on distinct signaling pathways. 129 mES or EpiSC cell samples were equally divided and plated on irradiated MEFs in the indicated growth conditions (mESM or epiESM) in which these cell lines are normally maintained, and 24 hours later the wells were supplemented with either JAKi or ALKi or were kept without any inhibitor. Representative images at Day 6 of the experiment are shown. EpiSC cells as previously described, differentiated upon introduction of ALK inhibitors, while mES cells differentiate upon blocking of Stat3 signaling by the JAK inhibitor.

mESCs = assay: Signaling dependence of pluripotent cell lines, mESCs; assay type: cell-based, mouse; conditions: normal growth medium, inhibitor or factor added
Procedure: Pluripotent cells were equally divided and plated on feeders in the indicated growth medium in which these cell lines are normally maintained, and 36 hours later the wells were supplemented with the indicated inhibitors or growth factors. After seven days, wells were fixed and stained to determine the relative percentage of colonies positive for pluripotency markers. SSEA1 staining was used for mouse stem cells. Colony formation was normalized to an internal control “Growth medium” without inhibitors (first left column). Normalized percentages lower than 5% are defined as “sensitivity” to the presence of the supplemented inhibitor. (B-C) Western blot analysis of total ERK1/2, phosphorylated ERK1/2 (pERK1/2) and phosphorylated Stat3 (pStat3). WIBR3 hESC and C1 hiPSC were grown in traditional bFGF/Activin containing media while naive-hESC/hiPSCs were grown in N2B27 PD/CH/FOR/LIF. ‘2×LIF’ indicates two fold increase in LIF concentration. (D) LIF/Stat3 is required for stabilization of naive-hESC/hiPSCs. Naïve NOD mESCs, WIBR3.5 and WIBR3.1 naive-hESC, and C1 naïve-hiPSCs were electroporated with a pBRY-CAGGS-flox-DsRedT4-IP control plasmid, a plasmid encoding a dominant negative Stat3 Y705F mutant (Stat3-DN), or a plasmid Stat3-C constitutively active mutant (pBRY-Stat3-CA). Cells were passaged three times in the presence of puromycin. After 20 days, colonies positive for pluripotency markers were counted and normalized to colonies from cells electroporated with empty vector (n=3 replicates for each condition). (E) RT-PCR expression of early germ cell markers in the presence or absence of BMP4/7/8 cytokines for 7 days. (F) Representative FISH analysis for XIST RNA (red) and Cot1 nuclear RNA (green). Pri-WIBR3.2 cell line was analyzed after passaging in conventional bFGF/serum-containing human ESC growth conditions. Numbers indicate average percentage of XIST positive nuclei counted. […]

[1] = system: naive human pluripotent stem cells; assay: Long-term propagation of naive human pluripotent stem cells; assay type: cell-based; conditions: genetically unmodified forskolin-dependent naive cells
Procedure: Naïve human pluripotent cells were grown in serum-free N2B27 based media. 500 ml of media was generated by including: 240 ml of DMEM/F12 (Invitrogen #11320), 240 ml of Neurobasal media (Invitrogen #21103), 5 ml of N2 supplement (Invitrogen #17502048), 10 ml B27 supplement (17504044), 10 μg of recombinant human LIF (Millipore, LIF1005), 1 mM glutamine (Invitrogen), 1% nonessential amino acids (Invitrogen), 0.1 mM β-mercaptoethanol (Sigma), pen/strep (Invitrogen), 5 mg/ml bovine serum albumin (Sigma) and small molecule inhibitors as indicated. Naïve-hESCs/hiPSCs were kept on mitomycin C (MMC)-inactivated mouse embryonic fibroblast (MEF) feeder cells, unless indicated otherwise, and where passage by single cell trypsinization every 5-10 days. Throughout the manuscript, indicated passage numbers of naïve-hiPSC/hESCs indicates number of passages counted after induction of the naïve state. The C1 secondary fibroblast cells (19), harbors Doxycycline (DOX) lentiviral vectors encoding Oct4, Sox2 and Klf4 reprogramming factors (45) and a constitutively active lentivirus encoding the reverse tetracycline transactivator (19), were grown in the presence of Dox in N2B27 media supplemented with different inhibitor combinations on gelatin coated plates, until initial PSC colonies were observed and subcloned. Mouse EpiSCs were derived and propagated as previously described (3,4). […]

129 mES cells = assay: Dependence of pluripotency on signaling pathways, 129 mES; assay type: cell-based, mouse; conditions: mESM, Day 6
Procedure: as §3

[2] = system: VASA, BLIMP1 and DAZL in naive-hESCs; assay: RT-PCR of early germ cell markers, naive-hESCs; assay type: cell-based, human; conditions: 7 days
Procedure: (§4) Pluripotent cells were equally divided and plated on feeders in the indicated growth medium in which these cell lines are normally maintained, and 36 hours later the wells were supplemented with the indicated inhibitors or growth factors. After seven days, wells were fixed and stained to determine the relative percentage of colonies positive for pluripotency markers. SSEA1 staining was used for mouse stem cells. Colony formation was normalized to an internal control “Growth medium” without inhibitors (first left column). Normalized percentages lower than 5% are defined as “sensitivity” to the presence of the supplemented inhibitor. (B-C) Western blot analysis of total ERK1/2, phosphorylated ERK1/2 (pERK1/2) and phosphorylated Stat3 (pStat3). WIBR3 hESC and C1 hiPSC were grown in traditional bFGF/Activin containing media while naive-hESC/hiPSCs were grown in N2B27 PD/CH/FOR/LIF. ‘2×LIF’ indicates two fold increase in LIF concentration. (D) LIF/Stat3 is required for stabilization of naive-hESC/hiPSCs. […] After 20 days, colonies positive for pluripotency markers were counted and normalized to colonies from cells electroporated with empty vector (n=3 replicates for each condition). […] Pri-WIBR3.2 cell line was analyzed after passaging in conventional bFGF/serum-containing human ESC growth conditions. Numbers indicate average percentage of XIST positive nuclei counted. […]

[3] = system: VASA, BLIMP1 and DAZL in hESCs; assay: RT-PCR of early germ cell markers, hESCs; assay type: cell-based, human; conditions: 7 days
Procedure: as §4

Compound | effect on pluripotency of naive-hESCs/hiPSCs (naive-hESCs/hiPSCs) | effect on pluripotency of conventional hESCs (hESCs) | effect on pluripotency of mEpiSCs (mEpiSCs) | effect on pluripotency of EpiSC cells (129 EpiSC cells) | effect on pluripotency of mESCs (mESCs) | number of passages cells could be maintained [1] | effect on pluripotency of 129 mES cells (129 mES cells) | activation of germ cell markers VASA, BLIMP1 and DAZL in naive-hESCs [2] | activation of germ cell markers VASA, BLIMP1 and DAZL in hESCs [3]
NC(=O)c1ccc(-c2nc(-c3ccc4c(c3)OCO4)c(-c3ccccn3)[nH]2)cc1 [ALKi] | maintained their pluripotent state | rapidly differentiated | rapidly differentiated | differentiated | maintained their pluripotent state | – | – | – | –
C=C[C@@]1(C)CC(=O)[C@]2(O)[C@@]3(C)[C@@H](O)CCC(C)(C)[C@@H]3[C@H](O)[C@H](OC(C)=O)[C@@]2(C)O1 [Forskolin] | – | – | – | – | – | 15-20 passages | – | – | –
CC(C)(C)c1nc2c3cc[nH]c(=O)c3c3cc(F)ccc3c2[nH]1 [JAKi] | readily differentiated | resistant | – | – | – | – | differentiate | – | –
BMP4: recombinant human BMP4 growth factor | but not of naive-hESCs/hiPSCs or mESCs | resulted in the differentiation | resulted in the differentiation | – | – | – | – | no up-regulation | readily activated
